Measurements from patent publication US20230226137A1, “Novel Pharmaceutical Composition for Treating Dry Eye Syndrome” (Novacell Technology Inc., priority 2020, published 2023).
Non-standard residues stand in square brackets, D forms with d. Residues, ends and D or L forms follow the SMILES beside them. *: point of attachment. Octanoyl = CCCCCCCC(=O)*

What was measured:
Format in all cases: cell-based
FPR2 = target: T1, FPR2 (Homo sapiens, UniProt P25090); assay: FPR2 activation, intracellular calcium (Fura-2/AM) in RBL cells overexpressing FPR2; settings: calcium ion increase in FPR2-overexpressing RBL cells
T1 construct: expressed in transfected cells; host or cells: RBL cells (FPR2-overexpressing)
T1 sequence (P25090 1-351): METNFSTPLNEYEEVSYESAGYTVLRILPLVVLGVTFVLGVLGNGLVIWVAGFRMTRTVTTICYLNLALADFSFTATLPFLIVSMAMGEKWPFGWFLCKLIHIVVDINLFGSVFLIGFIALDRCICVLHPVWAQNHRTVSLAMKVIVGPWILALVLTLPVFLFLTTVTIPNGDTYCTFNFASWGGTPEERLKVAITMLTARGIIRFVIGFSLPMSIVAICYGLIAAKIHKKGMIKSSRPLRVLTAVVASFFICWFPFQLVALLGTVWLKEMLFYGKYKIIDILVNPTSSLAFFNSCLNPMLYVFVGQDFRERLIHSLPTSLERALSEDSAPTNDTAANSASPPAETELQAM
Protocol: The present inventors have observed changes in calcium ion permeability in order to confirm whether or not the immunomodulatory and antibacterial peptide candidates of the present invention activates the immunomodulatory function of a living organism. Specifically, the concentration of calcium ions in cells was measured in order to confirm whether the peptide activates FPR2. To this end, the present inventors used RBL cells in which FPR2 was not expressed, RBL cells in which FPR1 was overexpressed (FPR1-RBL), and RBL cells in which FPR2 was overexpressed, and used Fura-2/AM, a staining material having a strong binding affinity for calcium, in a method for sensitively measuring free intracellular calcium ions. That is, the cells were cultured in RPMI medium containing 10% fetal bovine serum, centrifuged in the mid-log phase (1-3×10^7 cells/mL), and harvested. Then, the cells were washed several times with RPMI medium containing no fetal bovine serum and resuspended in RPMI medium to a concentration of 1×10^7 cells/mL. Then, the Fura-2/AM at a final concentration of 3 μM was added thereto and incubated in an incubator (37° C., 5% CO2) for 45 minutes with continuous stirring. After the appropriate time elapsed, the cells were harvested and washed again several times with RPMI medium. Then, the cells were suspended in an appropriate amount of RPMI medium, in which sulfinpyrazone was supplemented at a concentration of 250 μM, so as to prevent the Fura-2 that entered into the cells from being released to the outside of the cells. Approximately 2×10^6 cells were taken each time and harvested by rapid centrifugation and resuspended in 1 mL of Locke solution in which EGTA was added but no calcium ions were added, and the absorbance ratios at two wavelengths of 340 nm and 380 nm were monitored on a spectrophotometer. After treating with the peptide according to the present invention at different concentrations (1 μM, 0.1 μM, and 0.01 μM) at intervals of about 1 minute, the difference in absorbance at two wavelengths was examined and this was later converted to the concentration of calcium ions freed into the cells according to the method of Grynkiewicz.

Pseudomonas aeruginosa = settings: 18 h
Protocol: (§1) In addition, in order to measure the antibacterial activity of the peptide, Staphylococcus aureus, which is a gram-positive bacterium, and Pseudomonas aeruginosa, which is a gram-negative bacterium, were prepared, followed by 4th smearing on a flat medium of an agar, and culturing was performed overnight in a 36° C. incubator. The next day, strain colonies generated on the agar plate medium were inoculated into 3 mL-nutrient broth and cultured overnight in a shaking incubator at 36° C. and 220 rpm. The next day, the bacteria were diluted to measure absorbance at 600 nm, the absorbance was adjusted to 0.5, and the bacteria were diluted in a nutrient broth at a ratio of 1:100. Then, the peptides prepared in the Example were sequentially diluted in a nutrient broth at concentrations of 0, 1.25, 2.5, 5, 10, 20, and 40 μM, prepared 1 mL each, and then 1 mL of the diluted bacteria was inoculated. Then, the mixture was stirred at 36° C. and 220 rpm and incubated for 18 hours, and then the absorbance was measured at 600 nm.

Staphylococcus aureus = settings: 18 h
Protocol: as §1

Row | Structure (SMILES) | EC50 (FPR2) [µM] | IC50 (Pseudomonas aeruginosa) [µM] | IC50 (Staphylococcus aureus) [µM]
1 | CCCCCCCC(=O)N[C@@H](CCCCN)C(=O)N[C@@H](Cc1c[nH]c2ccccc12)C(=O)N[C@@H](CCCCN)C(=O)N[C@@H](Cc1c[nH]c2ccccc12)C(=O)N[C@@H](CCCNC(=N)N)C(=O)N[C@@H](Cc1ccc(O)cc1)C(=O)N[C@H](CCSC)C(N)=O [compound 4] (Octanoyl-KWKWRY[dM]-NH2) | 0.108 | 8.48 | 12.3
2 | CSCC[C@@H](NC(=O)[C@H](Cc1ccc(O)cc1)NC(=O)[C@H](CCCNC(=N)N)NC(=O)[C@H](Cc1c[nH]c2ccccc12)NC(=O)[C@H](CCCCN)NC(=O)[C@H](Cc1ccccc1)NC(=O)[C@@H](N)CCCCN)C(N)=O [compound 3] (H-KFKWRY[dM]-NH2) | 0.0654 | 7.41 | 19.8
3 | CCCCCCCC(=O)N[C@@H](CCCCN)C(=O)N[C@@H](Cc1ccccc1)C(=O)N[C@@H](CCCCN)C(=O)N[C@@H](Cc1c[nH]c2ccccc12)C(=O)N[C@@H](CCCNC(=N)N)C(=O)N[C@@H](Cc1ccc(O)cc1)C(=O)N[C@H](CCSC)C(N)=O [compound 2] (Octanoyl-KFKWRY[dM]-NH2) | 0.0929 | 4.69 | 21

Continued, values first:

Row | EC50 (FPR2) [µM] | IC50 (Pseudomonas aeruginosa) [µM] | IC50 (Staphylococcus aureus) [µM] | Structure (SMILES)
4 | 0.0907 | 25.4 | 4.86 | CCCCCCCC(=O)N[C@@H](CCCNC(=N)N)C(=O)N[C@@H](Cc1c[nH]c2ccccc12)C(=O)N[C@@H](CCCNC(=N)N)C(=O)N[C@@H](Cc1c[nH]c2ccccc12)C(=O)N[C@@H](CCCNC(=N)N)C(=O)N[C@@H](Cc1ccc(O)cc1)C(=O)N[C@H](CCSC)C(N)=O [compound 5] (Octanoyl-RWRWRY[dM]-NH2)
5 | 0.0303 | 6.43 | 39.9 | CSCC[C@@H](NC(=O)[C@H](Cc1ccc(O)cc1)NC(=O)[C@H](CCCNC(=N)N)NC(=O)[C@H](Cc1c[nH]c2ccccc12)NC(=O)[C@H](CCCNC(=N)N)NC(=O)[C@H](Cc1c[nH]c2ccccc12)NC(=O)[C@@H](N)CCCNC(=N)N)C(N)=O [compound 6] (H-RWRWRY[dM]-NH2)
